According to article PMC7406636, “In vivo and in silico characterization of apocynin in reducing organ oxidative stress: A pharmacokinetic and pharmacodynamic study” (Pharmacology Research & Perspectives, 2020):
Where two headings read alike, the source gives them in different places.

Legend:
[1] = LogBB calculation, Log (Cbrain/Cplasma); assay type: in vivo, mouse
Experimental: LogBB of apocynin was calculated as described previously ^22 using the equation: LogBB = Log (Cbrain/Cplasma). We used the values from 1 to 30 minutes detected in both plasma and brain tissues for LogBB calculation since apocynin plasma concentration was fallen to ~10 ng/mL (limit of quantification) after 30 minutes of iv injection, n = 3 mice/per time point.

[2] = set-up: method as in PMID 25140304; details: rats, intraperitoneal injection, urine collected at 20 hours; cited from earlier work
[3] = Time-dependent distribution of apocynin in plasma, urine and tissues after iv bolus injection (HPLC-MS/MS); assay type: in vivo, mouse
Experimental: All studies were performed in accordance with the protocols approved by the Home Office under the Animals (Scientific Procedures) Act 1986, UK. For the PKPD study, male CD1 mice (Charles River Ltd) at 12 weeks of age with a body weight range between 25 and 30 g were used for the study. Mice were fasted 12 hours before bolus iv injection of apocynin at 5 mg/kg body weight (dosing volume 5 mL/kg) via a lateral tail vein. Control mice were injected with vehicle (solvent of apocynin) at each time points. Four mice/per time points were sacrificed at 0, 1, 2.5, 5, 15, 30, 60 minutes and then at 3, 6, 12, and 24 hours after iv injection of apocynin. Blood samples were collected and centrifuged at 2000 g, 4°C for 10 minutes for plasma collection. Urine samples were collected from bladders. Tissues were harvested for further experiments.
(§1) The detection of apocynin in tissue sample was performed as described previously with some modifications. ^17 In brief, apocynin was detected using an Accela HPLC coupled to a linear ion‐trap tandem mass spectrometry (LTQ‐Orbitrap XL; Thermo‐Fisher Scientific) (HPLC‐MS/MS) in the negative ion mode. Phenacetin (500 ng/mL) was used as an internal standard in every vial. A reversed‐phase 50 × 2.1 mm ID, […], 175 Å pore C18 Hypersil Gold column (Thermo Scientific) was used with injection volume set at 5 µL for the separation of apocynin and phenacetin. Calibration curve used for PK analysis was constructed by spiking apocynin in mouse plasma using eight calibrators ranging from 1 to 10000 ng/mL with great reproducibility and R ^2 ≥ 0.996 for subsequent 5 separate experiments on different days. […] Limit of detection for apocynin was set up at signal to noise ratio ≥ 3, ^18 which is 1 ng/mL in our system. The limitation of quantification was set up at signal to noise ratio ≥ 10, which is 10 ng/mL in our system. Orbitrap component was used for the full scan spectra of apocynin and diapocynin.

[4] = Apocynin in organs after 16 weeks in drinking water, HFD mouse model (HPLC-MS/MS); assay type: in vivo; details: male, oral, C57BL/6J mice, HFD 16 weeks, apocynin 5 mmol/L in drinking water
Excerpt: The mouse model of high‐fat diet (HFD‐induced metabolic disorders and accelerated aging was established as described previously. ^8 Littermates of WT and Nox2KO mice (Jackson Laboratory) on a C57BL/6J background at 7 months of age were randomly assigned (n = 6/per group) to a HFD containing 45% kcal fat (Special Diets Services), or to a normal chow diet (NCD) containing 9.3% kcal fat (LabDiet Ltd) for 16 weeks. Apocynin was supplied in drinking water (5 mmol/L) for the treatment group. Body weights were measured weekly. Mice were sacrificed at 11 months of age and organs were harvested for further experiments.
as §1
The HFD study was performed exactly as described previously. ^8 Littermates of WT and Nox2KO mice on a C57BL/6J background (Jackson Laboratory, USA) were bred in our institution from heterozygotes and genotyped. […] Body weights were measured weekly. […] The body weights were recorded and organs were harvested.

[5] = Body weight in HFD-induced obesity and accelerated aging mouse model; assay type: in vivo; details: HFD 16 weeks, apocynin 5 mmol/L in drinking water, vs HFD without apocynin
Experimental: Apocynin was supplied in drinking water (5 mmol/L) for the treatment group. Body weights were measured weekly. Mice were sacrificed at 11 months of age and organs were harvested for further experiments. […] Male mice at 7 months of age were randomly assigned (n = 6/per group) to a HFD: 45% kcal fat, 20% kcal protein and 35% kcal carbohydrate (Special Diets Services), or a NCD: 9.3% kcal fat, 25.9% kcal protein, and 64.8% kcal carbohydrate (LabDiet Ltd) for 16 weeks. Apocynin was supplied in drinking water (5 mmol/L). Body weights were measured weekly. Mice (at 11 months) were fasted 8 hours before being sacrificed by an overdose of pentobarbital. The body weights were recorded and organs were harvested.

[6] = CD1 mice, iv bolus 5 mg/kg, 5 minutes, per tissue weight

LogBB ([1]; at 1 minute after iv injection): −0.1
LogBB at 30 min ([1]; male, CD1, mouse, brain/plasma, 5 mg/kg, at 30 minutes after iv injection): 1
time apocynin remained detectable in urine ([3]; CD1 mice, iv bolus 5 mg/kg): up to 12 hours
plasma apocynin concentration (peak) ([3]; CD1 mice, iv bolus 5 mg/kg, 1 minute after injection): 5494 ± 400 ng/mL
brain apocynin concentration (peak) ([3]; CD1 mice, iv bolus 5 mg/kg, 1 minute, per tissue weight): 4603 ± 208 ng/g
heart apocynin peak concentration [3, 6]: 3161 ± 309 ng/g
liver apocynin peak concentration [3, 6]: 2853 ± 35 ng/g
urine apocynin peak concentration ([3]; CD1 mice, iv bolus 5 mg/kg, at 30 minutes): 20492 ng/mL
apocynin detection in urine ([3]; CD1 mice, iv bolus 5 mg/kg, until 5 minutes after injection): undetectable
half-life in the brain compared with plasma ([3]; after iv injection): longer
renal clearance ([3]; after iv injection): high
concentration at 30 min ([3]; male, mouse, brain, CD1 mice, iv bolus 5 mg/kg, read-out: brain apocynin concentration): 103 ± 4 ng/g
concentration at 5 min ([3]; male, mouse, plasma, CD1 mice, iv bolus 5 mg/kg, 5 minutes): 3240 ± 1560 ng/mL
concentration at 15 min ([3]; male, mouse, plasma, CD1 mice, iv bolus 5 mg/kg, 15 minutes): ~50 ng/mL
concentration at 30 min ([3]; male, mouse, plasma, CD1 mice, iv bolus 5 mg/kg, read-out: plasma apocynin concentration): ~10 ng/mL
concentration at 3 h ([3]; male, mouse, urine, CD1 mice, iv bolus 5 mg/kg, 3 hours): 230 ± 31 ng/mL
concentration at 16 weeks ([4]; brain, read-out: brain apocynin concentration at end of treatment): 5370 ± 1610 ng/g
concentration at 16 weeks ([4]; heart, read-out: heart apocynin concentration at end of treatment): 1800 ± 1490 ng/g
concentration at 16 weeks ([4]; liver, read-out: liver apocynin concentration at end of treatment): 4820 ± 1340 ng/g
Structure (SMILES): COc1cc(C(C)=O)ccc1O [Apocynin, 4‐hydroxy‐3‐methoxyacetophenone]
apocynin recovered in unchanged form in urine [2]: 80%
effect on HFD-induced increase in body weight [5]: significantly reduced
